Experimental data taken from patent US20040152903A1, “6-chloro-3-pyridylmethylpropylamine derivatives, preparation process thereof and bactericides” (priority 2004, published 2004).

Columns and labels:
wheat powdery mildew [1] = assay: Test of control effect on wheat powdery mildew; type: in vivo; design: Control Value: scale not given here; conditions: wettable powder 125 mg/l, 100 liters/10 a, wheat seedlings (Nourin 64), examined 9th to 14th day after inoculation
Description: (Test of Control Effect on Wheat Powdery Mildew) Wettable powders were prepared from compounds of the present invention I-1 to I-27 and comparative compounds (a) to (d), (m-1) and (m-3). The obtained wettable powder was diluted and suspended with water to provide the predetermined concentration (125 mg/l), and was sprinkled onto seedlings of wheat (variety: “Nourin 64”) at the first to the second leaf period which were cultivated using square plastic pots (size: 6.4 cm×6.4 cm) in a rate of 100 liters/10 a (ares). After drying the sprinkled leaves with air, a suspension of wheat powdery mildew spores taken from infected leaves was inoculated by spraying onto the sprinkled leaves. They were supervised in a green house (temperature: 20 to 24° C., relative humidity: 20 to 70 RH). On the 9th to 14th day after the inoculation, the infection degree was examined according to the following scale and the control value of each compound was calculated by the following calculation equation 1. [table]

cucumber powdery mildew = assay: Test of control effect on cucumber powdery mildew; type: in vivo; conditions: wettable powder 100 mg/l, 100 liters/10 a, cucumber (Sagamihanpakufushinari), examined 9th to 14th day after inoculation
Description: (Test of Control Effect on Cucumber Powdery Mildew) The wettable powders formulated by using each of the compounds I-1 to 27 according to the present invention and the comparative compounds (a) to (d), (m-1) and (m-3) were each diluted and suspended with water to a predetermined concentration (100 mg/l), the suspension was sprinkled over the first to the second leaf period cucumbers (variety: “[…]”) cultivated by using a square plastic pot (size: 6.4 cm×6.4 cm) in a rate of 100 liters/10 a (ares). After the sprinkled leaves were air-dried, the spores were inoculated over the leaves by sprinkling the same with a brush from an infected leaf, a disease was contracted in a glass house (temperature: 20 to 24° C., relative humidity: 20 to 70 RH). On the 9th to 14th day after the inoculation, the infection degree was examined according to the following scale and the control value of each compound was calculated by the following calculation equation 2: (Examination Scale) [table]

Botrytis cinerea = assay: Antifungal activity test (PDA plate, hypha extension inhibition); type: cell-based; conditions: 1.6 ppm in PDA culture medium
Description: (Antifungal Activity Test against Various Pathogenic Fungi) For each of the compounds I-1 to 27 of the present invention and the comparative compounds (a) to (d), (m-1) and (m-3), 20 mg was weighed and dissolved in 2 ml of dimethylsulfoxide, and a double dilution row in 10 steps was prepared by further using dimethylsulfoxide. A 0.6 ml portion of these solutions was each added to 60 ml of a PDA culture medium (potato-dextrose-agar culture medium) at about 60° C., they were well mixed in a 100 ml Erlenmeyer flask, the solution was poured into a schale and was solidified, the plate culture media containing the compounds according to the present invention with final concentrations of 100, 50.0, 25.0, 12.5, 6.3, 3.2, 1.6, 0.8, 0.4 and 0.2 mg/l were prepared. On the other hand, the specimen bacteria cultured on the plate culture media beforehand was punched by a 4 mm diameter cork borer, and was inoculated on the plate culture media containing the aforementioned chemicals. After the inoculation, the bacteria were cultured at the optimum growth temperature of each bacterium for 1 to 7 days (for this optimum growth temperature, LIST OF CULTURES 1996 Microorganisms 10th edition published by Fermentation Research Institute (Foundation) can be referred to.), and the growth of the bacteria was measured by the diameter of a colony. […] R=100(dc−dt)/dc (Equation 3) [wherein each symbol is shown as follows: R=Hypha extension inhibition rate (%), dc=Diameter of colony on no-treated plate, dt=Diameter of colony on chemical-treated plate.] The results obtained above was evaluated in 5 steps in accordance with the following examination scale. <Growth Inhibition> 5: Hypha extension inhibition rate of 90% or more 4: Hypha extension inhibition rate of from 70% to less than 90% 3: […] 2: […] In addition, the abbreviations in Table 10 are as follows: B.c: Botrytis cinerea

wheat powdery mildew [2] = assay: Permeable mobility fungicidal effect test in leaf section of wheat powdery mildew; type: in vivo; conditions: length of non-contracted area relative to compound (m-2); 200 mg/l, 0.5 μl applied to wheat leaf (Abukumawase)
Description: (Permeable Mobility Fungicidal Effect Test in Leaf Section of Wheat Powdery Mildew) In the test example 4, permeable mobility fungicidal effect test was performed on the leaf section of wheat powdery mildew with regard to the compounds I-1 to 27 according to the present invention and the comparative compounds (a) to (d), and (m-1) to (m-3) with the method described later. <Test Method> The compound in the form of a wettable powder obtained by Formulation 2 or the like was diluted and suspended with water to a predetermined concentration (200 mg/l), and 0.5 μl of the suspension was applied to a 2 to 3 cm leaf portion from the root of the three leaves of the 4th to 4.5th leaf period wheat (variety: Abukumawase) cultured by using a square plastic pot (size: 6.4 cm×6.4 cm). After these wheat leaves were subject to still standing in a glass house (temperature: 20 to 24° C., relative humidity: 20 to 70 RH) for one day, the spores of wheat powdery mildew were inoculated over the leaves by sprinkling the same with a brush from an infected leaf, a disease was contracted in the same glass house. The length of a non-contracted area generated from the applied portion to the direction of the leaf top was measured, and a relative mobility to the compound (m-2) was calculated with the following calculation […] by using the comparative compound (m-2) as a standard compound. Relative mobility=(Length of non-contracted area in each chemical section (cm)/Length of non-contracted area of compound (m-2) (cm)) (Equation 4)

SMILES: CC(Cc1ccc2c(c1)OC(F)(F)C(F)(F)O2)CN(C)Cc1ccc(Cl)nc1 (stereo not drawn) [Compound I-26]
- Control Value (wheat powdery mildew [1]): 100
- Control Value (cucumber powdery mildew): 100
- Growth Inhibition B.c (1.6) (Botrytis cinerea): 4 (Hypha extension inhibition rate of from 70% to less than 90%)
- Relative Mobility (wheat powdery mildew [2]): 3

SMILES: COc1cccc(CC(C)CN(C)Cc2ccc(Cl)nc2)c1 (stereo not drawn) [(m-3), 6-chloro-N-[3-(3-methoxyphenyl)-2-methylpropyl]-N-methyl-3-pyridylmethylamine, reference compound]
- pest or weed control at 125 µg/mL (wheat powdery mildew [1]; Triticum aestivum): 0%
- pest or weed control at 100 µg/mL (cucumber powdery mildew; Cucumis sativus): 0%
- inhibition at 1.6 ppm (Botrytis cinerea; read-out: Growth Inhibition B.c (1.6)): < 20%

SMILES: CC(Cc1cc(C(F)F)cc(C(F)(F)F)c1)CN(C)Cc1ccc(Cl)nc1 (stereo not drawn) [Compound I-4]
- Control Value (wheat powdery mildew [1]): 100
- Control Value (cucumber powdery mildew): 80
- Growth Inhibition B.c (1.6) (Botrytis cinerea): 4 (Hypha extension inhibition rate of from 70% to less than 90%)
- Relative Mobility (wheat powdery mildew [2]): 3

SMILES: CC(Cc1ccc(Cl)c(OC(F)(F)F)c1)CN(C)Cc1ccc(Cl)nc1 (stereo not drawn) [Compound I-15]
- Control Value (wheat powdery mildew [1]): 100
- Control Value (cucumber powdery mildew): 100
- Growth Inhibition B.c (1.6) (Botrytis cinerea): 4 (Hypha extension inhibition rate of from 70% to less than 90%)
- Relative Mobility (wheat powdery mildew [2]): 9

SMILES: CC(Cc1ccc(C(F)(F)F)cc1C(F)(F)F)CN(C)Cc1ccc(Cl)nc1 (stereo not drawn) [Compound I-2]
- Control Value (wheat powdery mildew [1]): 100
- Control Value (cucumber powdery mildew): 100
- Growth Inhibition B.c (1.6) (Botrytis cinerea): 4 (Hypha extension inhibition rate of from 70% to less than 90%)
- Relative Mobility (wheat powdery mildew [2]): 3

SMILES: CC(Cc1cc(C(F)(F)F)ccc1C(F)(F)F)CN(C)Cc1ccc(Cl)nc1 (stereo not drawn) [Compound I-3]
- Control Value (wheat powdery mildew [1]): 90
- Control Value (cucumber powdery mildew): 100
- Growth Inhibition B.c (1.6) (Botrytis cinerea): 4 (Hypha extension inhibition rate of from 70% to less than 90%)
- Relative Mobility (wheat powdery mildew [2]): 3

SMILES: CC(Cc1ccc(OC(F)(F)F)c(Cl)c1)CN(C)Cc1ccc(Cl)nc1 (stereo not drawn) [Compound I-18]
- Control Value (wheat powdery mildew [1]): 100
- Control Value (cucumber powdery mildew): 100
- Growth Inhibition B.c (1.6) (Botrytis cinerea): 5 (Hypha extension inhibition rate of 90% or more)
- Relative Mobility (wheat powdery mildew [2]): 8

SMILES: CC(Cc1ccc(OC(F)(F)C(F)C(F)(F)F)cc1)CN(C)Cc1ccc(Cl)nc1 (stereo not drawn) [Compound I-14]
- Control Value (wheat powdery mildew [1]): 100
- Control Value (cucumber powdery mildew): 100
- Growth Inhibition B.c (1.6) (Botrytis cinerea): 4 (Hypha extension inhibition rate of from 70% to less than 90%)
- Relative Mobility (wheat powdery mildew [2]): 7

SMILES: CC(Cc1cc(Cl)cc(C(F)(F)F)c1)CN(C)Cc1ccc(Cl)nc1 (stereo not drawn) [Compound I-5]
- Control Value (wheat powdery mildew [1]): 100
- Control Value (cucumber powdery mildew): 100
- Growth Inhibition B.c (1.6) (Botrytis cinerea): 4 (Hypha extension inhibition rate of from 70% to less than 90%)
- Relative Mobility (wheat powdery mildew [2]): 3

SMILES: CC(Cc1cccc(C(F)(F)F)c1F)CN(C)Cc1ccc(Cl)nc1 (stereo not drawn) [Compound I-7]
- Control Value (wheat powdery mildew [1]): 100
- Control Value (cucumber powdery mildew): 90
- Growth Inhibition B.c (1.6) (Botrytis cinerea): 4 (Hypha extension inhibition rate of from 70% to less than 90%)
- Relative Mobility (wheat powdery mildew [2]): 5

SMILES: CC(Cc1c(F)c(F)c(C(F)(F)F)c(F)c1F)CN(C)Cc1ccc(Cl)nc1 (stereo not drawn) [Compound I-11]
- Control Value (wheat powdery mildew [1]): 90
- Control Value (cucumber powdery mildew): 100
- Growth Inhibition B.c (1.6) (Botrytis cinerea): 4 (Hypha extension inhibition rate of from 70% to less than 90%)
- Relative Mobility (wheat powdery mildew [2]): 5

SMILES: CC(Cc1c(F)c(F)c(F)c(F)c1F)CN(C)Cc1ccc(Cl)nc1 (stereo not drawn) [Compound I-23]
- Control Value (wheat powdery mildew [1]): 100
- Control Value (cucumber powdery mildew): 70
- Growth Inhibition B.c (1.6) (Botrytis cinerea): 4 (Hypha extension inhibition rate of from 70% to less than 90%)
- Relative Mobility (wheat powdery mildew [2]): 4

SMILES: CC(Cc1ccc2c(c1)C(F)(F)OC(F)(F)O2)CN(C)Cc1ccc(Cl)nc1 (stereo not drawn) [Compound I-27]
- Control Value (wheat powdery mildew [1]): 100
- Control Value (cucumber powdery mildew): 100
- Growth Inhibition B.c (1.6) (Botrytis cinerea): 4 (Hypha extension inhibition rate of from 70% to less than 90%)
- Relative Mobility (wheat powdery mildew [2]): 3

SMILES: CC(Cc1ccc(OC(F)(F)Br)c(Cl)c1)CN(C)Cc1ccc(Cl)nc1 (stereo not drawn) [Compound I-19]
- Control Value (wheat powdery mildew [1]): 100
- Control Value (cucumber powdery mildew): 100
- Growth Inhibition B.c (1.6) (Botrytis cinerea): 4 (Hypha extension inhibition rate of from 70% to less than 90%)
- Relative Mobility (wheat powdery mildew [2]): 8

SMILES: CC(Cc1cc(F)cc(C(F)(F)F)c1)CN(C)Cc1ccc(Cl)nc1 (stereo not drawn) [Compound I-6]
- Control Value (wheat powdery mildew [1]): 100
- Control Value (cucumber powdery mildew): 100
- Growth Inhibition B.c (1.6) (Botrytis cinerea): 4 (Hypha extension inhibition rate of from 70% to less than 90%)
- Relative Mobility (wheat powdery mildew [2]): 5

SMILES: CC(Cc1ccc2c(c1)OC(Cl)(Cl)O2)CN(C)Cc1ccc(Cl)nc1 (stereo not drawn) [Compound I-25]
- Control Value (wheat powdery mildew [1]): 100
- Control Value (cucumber powdery mildew): 100
- Growth Inhibition B.c (1.6) (Botrytis cinerea): 4 (Hypha extension inhibition rate of from 70% to less than 90%)
- Relative Mobility (wheat powdery mildew [2]): 3

SMILES: CC(Cc1cc(Cl)c(F)c(Cl)c1)CN(C)Cc1ccc(Cl)nc1 (stereo not drawn) [Compound I-22]
- Control Value (wheat powdery mildew [1]): 100
- Control Value (cucumber powdery mildew): 100
- Growth Inhibition B.c (1.6) (Botrytis cinerea): 4 (Hypha extension inhibition rate of from 70% to less than 90%)
- Relative Mobility (wheat powdery mildew [2]): 3

SMILES: CC(Cc1ccc(OC(F)F)cc1)CN(C)Cc1ccc(Cl)nc1 (stereo not drawn) [Compound I-13]
- Control Value (wheat powdery mildew [1]): 100
- Control Value (cucumber powdery mildew): 100
- Growth Inhibition B.c (1.6) (Botrytis cinerea): 4 (Hypha extension inhibition rate of from 70% to less than 90%)
- Relative Mobility (wheat powdery mildew [2]): 9

SMILES: CC(Cc1cc(C(F)(F)F)cc(C(F)(F)F)c1)CN(C)Cc1ccc(Cl)nc1 (stereo not drawn) [Compound I-1]
- Control Value (wheat powdery mildew [1]): 100
- Control Value (cucumber powdery mildew): 100
- Growth Inhibition B.c (1.6) (Botrytis cinerea): 4 (Hypha extension inhibition rate of from 70% to less than 90%)
- Relative Mobility (wheat powdery mildew [2]): 3
